Laboratory results from patent US20060069132A1, “Azolecarboxamide herbicides” (priority 2004, published 2006).

Key:
[1] = system: bermudagrass; experiment: Test C pre-/postemergence herbicide test; assay type: in vivo, Cynodon dactylon; settings: for Bermudagrass plant response rating: Preemergence
Method in brief: (§1)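 Pre/post spray; non-phytotoxic solvent + surfactant. Post-timing 1–4 leaves, 2–18 cm. Read-out: visual % control vs untreated, day 12–14, greenhouse.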

[2] = system: large crabgrass; experiment: Test C pre-/postemergence herbicide test; assay type: in vivo, Digitaria sanguinalis
Method in brief: as §1

[3] = system: eastern black nightshade; experiment: Test C pre-/postemergence herbicide test; assay type: in vivo, Solanum ptycanthum
Method in brief: as §1

[4] = system: velvetleaf; experiment: Test C pre-/postemergence herbicide test; assay type: in vivo, Abutilon theophrasti; settings: for Plant response rating (0 = no effect, 100 = complete control), Velvetleaf: 125 g ai/ha
Method in brief: as §1

[5] = system: ducksalad; experiment: Test C flooded paddy test; assay type: in vivo, Heteranthera limosa
[6] = 62 g ai/ha, preemergence, scale 0 to 100, 0 no effect, 100 complete control
[7] = 125 g ai/ha, scale 0 (no effect) to 100 (complete control), visual, 12 to 14 days, preemergence
[8] = 250 g ai/ha, scale 0-100, preemergence
[9] = 500 g ai/ha, scale 0 to 100, 0 no effect, 100 complete control
[10] = 62 g ai/ha, preemergence, scale 0 to 100
[11] = 500 g ai/ha, scale 0 to 100 (0 no effect, 100 complete control), visual, 12 to 14 days, preemergence
[12] = 125 g ai/ha, scale 0 to 100 (0 no effect, 100 complete control)
[13] = 250 g ai/ha, scale of 0 to 100, 0 is no effect, 100 is complete control
[14] = 500 g ai/ha, visual rating after 12 to 14 days, scale 0 to 100 (0 no effect, 100 complete control)

SMILES	Plant response rating, Bermudagrass [1, 6]	Plant response rating, Bermudagrass [1, 7]	Plant response rating, Bermudagrass [1, 8]	Bermudagrass plant response rating [1, 9]	Plant response rating, Crabgrass, Large [2, 10]	Plant response rating, Crabgrass, Large [2, 7]	Plant response rating, Crabgrass, Large [2, 8]	Plant response rating, Crabgrass, Large [2, 11]	Plant response rating, Nightshade [3, 10]	Plant response rating, Nightshade [3, 7]	Plant response rating, Nightshade [3, 8]	Plant response rating, Nightshade [3, 11]	Plant response rating, Velvetleaf [4, 10]	Plant response rating, Velvetleaf [4, 8]	Plant response rating, Velvetleaf [4, 11]	Ducksalad plant response rating ([5]; 62 g ai/ha, scale 0 to 100)	Ducksalad plant response rating [5, 12]	Ducksalad plant response rating [5, 13]	Plant response rating, Ducksalad [5, 14]	Plant response rating (0 = no effect, 100 = complete control), Bermudagrass ([1]; 125 g ai/ha, preemergence)	further results
CCn1nc(C(C)(C)C)cc1C(=O)Nc1cc(C(=S)N(C)C)ccc1F [Compound 294]	70	80	90	90	70	95	100	100	100	100	100	100	100	100	100	90	95	95	95		
CCn1nc(C2(C)CC2)cc1C(=O)Nc1cc(C(=O)N(C)C)ccc1F [Compound 299]	100	100	100	100	100	100	100	100	100	100	100	100	5	100	100	95	95	95	95		
CCn1nc(C(C)(C)C)cc1C(=S)Nc1cc(C(=S)N(C)C)ccc1F [Compound 305]	80	85	100	100	70	100	100	100	60	90	100	100	40	100	100	0	0	0	0		
CCNC(=O)c1cccc(NC(=O)c2cc(C3(C)CC3)nn2CC)c1 [Compound 306]	40	85	90	100	100	100	100	100	90	95	100	100	5		10	50	80	80	90		
CCn1nc(C(C)(C)C)cc1C(=O)Nc1cc(C(=S)N(C)C)ccn1 [Compound 334]	100	100	100		85	100	100		100	100	100		5	85		75	85	85	90		Plant response rating, Bermudagrass ([1]; 31 g ai/ha, scale 0 to 100, 0 no effect, 100 complete control, last section of Table C (species set of preemergence test)): 100
CCn1nc2c(c1C(=O)Nc1cc(C(=O)N(C)C)ccc1F)CCC2(C)C [Compound 352, N-[5-[(dimethylamino)carbonyl]-2-fluorophenyl]-2-ethyl-2,4,5,6-tetrahydro-6,6-dimethyl-3-cyclopentapyrazolecarboxamide]																				100	pest or weed control at 62 g/ha ([1]; Cynodon dactylon, pre-emergence, 312 h, 62 g ai/ha, preemergence, scale 0 to 100, 0 no effect, 100 complete control, read-out: Plant response rating, Bermudagrass): 95%; pest or weed control at 250 g/ha ([1]; Cynodon dactylon, pre-emergence, 312 h, 250 g ai/ha, scale 0-100, read-out: Plant response rating, Bermudagrass): 100%; pest or weed control at 500 g/ha ([1]; Cynodon dactylon, pre-emergence, 312 h, 500 g ai/ha, scale 0 to 100 (0 no effect, 100 complete control), visual, 12 to 14 days, read-out: Plant response rating, Bermudagrass): 100%; Plant response rating (0 = no effect, 100 = complete control), Crabgrass, Large ([2]; 125 g ai/ha, preemergence): 85; pest or weed control at 62 g/ha ([2]; Digitaria sanguinalis, pre-emergence, 312 h, 62 g ai/ha, preemergence, scale 0 to 100, read-out: Plant response rating, Crabgrass, Large): 55%; pest or weed control at 250 g/ha ([2]; Digitaria sanguinalis, pre-emergence, 312 h, 250 g ai/ha, scale 0-100, read-out: Plant response rating, Crabgrass, Large): 100%; pest or weed control at 500 g/ha ([2]; Digitaria sanguinalis, pre-emergence, 312 h, 500 g ai/ha, scale 0 to 100 (0 no effect, 100 complete control), visual, 12 to 14 days, read-out: Plant response rating, Crabgrass, Large): 100%; Plant response rating (0 = no effect, 100 = complete control), Nightshade ([3]; 125 g ai/ha, preemergence): 0; pest or weed control at 62 g/ha ([3]; pre-emergence, 62 g ai/ha, preemergence, scale 0 to 100, read-out: Plant response rating, Nightshade): 0%; pest or weed control at 250 g/ha ([3]; pre-emergence, 250 g ai/ha, scale 0-100, read-out: Plant response rating, Nightshade): 50%; pest or weed control at 500 g/ha ([3]; pre-emergence, 500 g ai/ha, scale 0 to 100 (0 no effect, 100 complete control), visual, 12 to 14 days, read-out: Plant response rating, Nightshade): 100%; Plant response rating (0 = no effect, 100 = complete control), Velvetleaf ([4]; preemergence): 5; pest or weed control at 62 g/ha ([4]; Abutilon theophrasti, pre-emergence, 62 g ai/ha, preemergence, scale 0 to 100, read-out: Plant response rating, Velvetleaf): 0%; pest or weed control at 250 g/ha ([4]; Abutilon theophrasti, pre-emergence, 250 g ai/ha, scale 0-100, read-out: Plant response rating, Velvetleaf): 70%; pest or weed control at 500 g/ha ([4]; Abutilon theophrasti, pre-emergence, 500 g ai/ha, scale 0 to 100 (0 no effect, 100 complete control), visual, 12 to 14 days, read-out: Plant response rating, Velvetleaf): 100%; pest or weed control at 62 g/ha ([5]; Heteranthera limosa, 62 g ai/ha, scale 0 to 100, read-out: Ducksalad plant response rating): 20%; pest or weed control at 125 g/ha ([5]; Heteranthera limosa, 125 g ai/ha, scale 0 to 100 (0 no effect, 100 complete control), read-out: Ducksalad plant response rating): 65%; pest or weed control at 250 g/ha ([5]; Heteranthera limosa, 250 g ai/ha, scale of 0 to 100, 0 is no effect, 100 is complete control, read-out: Ducksalad plant response rating): 85%; pest or weed control at 500 g/ha ([5]; Heteranthera limosa, 500 g ai/ha, visual rating after 12 to 14 days, scale 0 to 100 (0 no effect, 100 complete control), read-out: Plant response rating, Ducksalad): 95%
CCNC(=O)c1cccc(NC(=O)c2nn(C(C)(C)C)nc2C)c1 [Compound 392]	90		95		98		100	100	90		100	100	70	100	100	45	75	85	85	90	Plant response rating, Bermudagrass [1, 11]: 95; Plant response rating (0 = no effect, 100 = complete control), Crabgrass, Large ([2]; 125 g ai/ha, preemergence): 100; Plant response rating (0 = no effect, 100 = complete control), Nightshade ([3]; 125 g ai/ha, preemergence): 95; Plant response rating (0 = no effect, 100 = complete control), Velvetleaf ([4]; preemergence): 100
CCc1nn(C(C)(C)C)nc1C(=O)Nc1cccc(C(=S)N(C)C)c1 [Compound 395]	95		100		100		100	100	100		100	100	95	100	100	15	20	55	55	100	Plant response rating, Bermudagrass [1, 11]: 100; Plant response rating (0 = no effect, 100 = complete control), Crabgrass, Large ([2]; 125 g ai/ha, preemergence): 100; Plant response rating (0 = no effect, 100 = complete control), Nightshade ([3]; 125 g ai/ha, preemergence): 100; Plant response rating (0 = no effect, 100 = complete control), Velvetleaf ([4]; preemergence): 100
